Data taken from patent US10716771B2, “Pharmaceutical composition for preventing or treating immune diseases or inflammatory diseases, containing biguanide derivative compound as active ingredient” (THE CATHOLIC UNIVERSITY OF KOREA INDUSTRY-ACADEMIC …, priority 2013, dated 2020).

How the values were obtained:
Foxp3+ Treg cells = experiment: Regulatory T cell (Treg) expression by flow cytometry, Example 8-3; assay type: cell-based, mouse; conditions: anti-CD4, anti-CD25, anti Foxp3
Protocol: In order to evaluate an arthritis therapeutic effect of the biguanide derivative compound of the present invention, in a rheumatoid arthritis animal model, cytotoxicity, generation of autoantibody, expression of inflammatory cytokines and regulatory T cells (Treg), and osteoclast differentiation were measured. Like Examples, metformin was used as a control group. Further, in order to examine whether the biguanide derivative compound of the present invention activates the expression of regulatory T cells (Treg), the incubated cells were flow-cytometry by using anti-CD4-percp, anti-CD25-APC, and anti Foxp3-Pe fluorescent antibodies (ab), and as a result, it was verified that SD-196, 216 and 217 activated the Foxp3+ Treg cells (see FIG. 10).

IL-17 [1] = experiment: IL-17 expression in lupus animal model; assay type: cell-based
Protocol: (§1) In order to evaluate an effect of suppressing the expression of the inflammatory cytokine of the biguanide derivative compound of the present invention, the incubated supernatant was collected and the expression degrees of IL-17 and TNF-α of a mouse were examined by using a sandwich ELISA. […] of a monoclonal anti-IL-17 or anti-TNF-α was reacted in a 96-well plate at 4° C. overnight and then a non-specific binding was blocked by a blocking solution (1% BSA/PBST) after the reaction. An IL-17 or TNF-α recombinant was continuously diluted by 1/2 to be used as a standard, added with the cell-incubated supernatant, and reacted at room temperature for 2 hrs. Thereafter, biotinylated anti-IL-17 or anti-TNF-α was added and reacted at room temperature for 2 hrs, washed four times after the reaction, diluted with a diluted ExtraAvidin-alkaline phosphatase conjugate, and reacted at room temperature for 2 hrs. After the reaction, a PNPP/DEA was added and colored, and absorbance was measured at a wavelength of 405 nm.
(§2) In order to evaluate a lupus therapeutic effect of the biguanide derivative compound of the present invention, in a lupus animal model, cytotoxicity, autoantibody generation, generation of inflammatory cytokines, and Th17 regulation were measured by the same method as Example 8.

IL-17 [2] = experiment: IL-17 expression in rheumatoid arthritis disease model with metabolic syndrome; assay type: cell-based
Protocol: as §1
(§3) Further, the incubated cells were analyzed by flow cytometry using anti-CD4-percp and anti-IL-17-Pe fluorescent antibodies, and as a result, it was verified that SD-196, 216 and 217 suppressed the activity of Th17 and simultaneously activated the expression of the regulatory T cells (Treg) (see FIG. 13).

TNF-α = TNF-α expression in lupus animal model; assay type: cell-based
Protocol: as §1, §2

Th17 = Th17 activity in lupus animal model; assay type: cell-based
Protocol: as §3, §2

[3] = system: regulatory T cells (Treg); experiment: Regulatory T cell (Treg) expression in rheumatoid arthritis disease model with metabolic syndrome; assay type: cell-based
Protocol: Further, in order to examine whether the biguanide derivative compound of the present invention activates the expression of regulatory T cells (Treg), the incubated cells were flow-cytometry by using anti-CD4-percp, anti-CD25-APC, and anti Foxp3-Pe fluorescent antibodies (ab), and as a result, it was verified that SD-196, 216 and 217 activated the Foxp3+ Treg cells (see FIG. 10).
as §3

[4] = system: cells isolated from the spleen; experiment: Cytotoxicity MTT assay, Example 8-1 (rheumatoid arthritis evaluation); assay type: cell-based; conditions: mouse spleen cells, anti-CD3 0.5 μg/ml or LPS 100 ng/ml, 3 days
Protocol: In order to evaluate an arthritis therapeutic effect of the biguanide derivative compound of the present invention, in a rheumatoid arthritis animal model, cytotoxicity, generation of autoantibody, expression of inflammatory cytokines and regulatory T cells (Treg), and osteoclast differentiation were measured. Like Examples, metformin was used as a control group. In order to examine cytotoxicity of the biguanide derivative compound of the present invention, an MTT assay was performed. Cells were isolated from the spleen in a normal mouse group and the isolated cells were incubated for 3 days in the concentration of 0.5 μg/ml of anti-CD3 or 100 ng/ml of LPS 100, and metformin, SD-196, SD-216 or SD-217 was treated for each concentration and incubated for 3 days.

[5] = Cytotoxicity (MTT) in rheumatoid arthritis disease model with metabolic syndrome; assay type: cell-based
Protocol: (§4) In order to examine cytotoxicity of the biguanide derivative compound of the present invention, an MTT assay was performed. Cells were isolated from the spleen in a normal mouse group and the isolated cells were incubated for 3 days in the concentration of 0.5 μg/ml of anti-CD3 or 100 ng/ml of LPS 100, and metformin, SD-196, SD-216 or SD-217 was treated for each concentration and incubated for 3 days.
as §3

IgG = IgG generation in lupus animal model; assay type: cell-based; conditions: compared with metformin
Protocol: In order to examine an effect of suppressing the generation of autoantibody of the biguanide derivative compound of the present invention, the incubated supernatant was collected and the IgG expression degree was examined by using an ELISA. A monoclonal anti-IgG was reacted at 4° C. overnight in a 96-well plate and then a non-specific binding was blocked by a blocking solution. A mouse control serum was continuously diluted by 1/2 to be used as a standard, added with the cell-incubated supernatant, and reacted at room temperature for 2 hrs. Thereafter, HRP-anti-IgG was reacted at room temperature for 2 hrs, washed four times after reaction, added with the diluted HRP-conjugate, and reacted at room temperature for 2 hrs.
as §2

[6] = Cytotoxicity (MTT) in lupus animal model; assay type: cell-based
Protocol: as §4, with “days. […] In order to evaluate a lupus therapeutic effect of the biguanide derivative compound of the present invention, in a lupus animal model, cytotoxicity, autoantibody generation, generation of inflammatory cytokines, and Th17 regulation were measured by the same method as Example 8.” for “days.”

| Compound | Foxp3+ Treg cells (Foxp3+ Treg cells) | expression of IL-17 (IL-17 [1]) | expression of IL-17 (IL-17 [2]) | expression of TNF-α (TNF-α) | activity of Th17 (Th17) | expression of the regulatory T cells (Treg) [3] | cytotoxicity (MTT assay) [4] | cytotoxicity [5] | expression of IgG (IgG) | cytotoxicity [6] |
| --- | --- | --- | --- | --- | --- | --- | --- | --- | --- | --- |
| N=C(N)NC(=N)Nc1ccc(F)cc1F [SD-000217, 1-(2,4-difluorophenyl)biguanide] | activated | suppressed | suppressed | suppressed | suppressed | activated | no cytotoxicity | did not have the cytotoxicity | significantly suppressed | no cytotoxicity |
| CC(C)NC(=N)NC(=N)N [SD-000196, 1-isopropylbiguanide] | activated | suppressed | suppressed | suppressed | suppressed | activated | no cytotoxicity | did not have the cytotoxicity | significantly suppressed | no cytotoxicity |
| NC(N)=N/C(N)=N/c1cccc(F)c1 [SD-000216, 1-(3-fluorophenyl)biguanide] | activated | suppressed | suppressed | suppressed | suppressed | activated | no cytotoxicity | did not have the cytotoxicity | significantly suppressed | no cytotoxicity |
